Measurements as given in patent US20230111310A1, “CARBOXYLIC ACID DERIVATIVE-SUBSTITUTED IMINO ARYL COMPOUND, PREPARATION METHOD THEREFOR, HERBICIDAL COMPOSITION AND USE THEREOF” (Qingdao Kingagroot Chemical Compound Co., Ltd., priority 2020, published 2023).

Tests used:
Test in all cases: Weeding effect in post-emergence stage
Format in all cases: in vivo
Settings in all cases: fresh weight control rate level
[1] = test system: Setaria viridis
Method in brief: (§1)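 Doses of 500, 250, 125, 60, 30, 15 and 7.5 g/ha, with methyl oleate synergist (1.5 liter/ha) and Tween 80 from acetone solution, applied by spray tower post-emergence (2–3 leaf stage). Weed control scored after 3 further greenhouse weeks, averaged over triplicates.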

[2] = test system: Abutilon theophrasti
Method in brief: as §1

[3] = test system: Eleusine indica
Method in brief: as §1

[4] = test system: Digitaria sanguinalis
Method in brief: as §1

[5] = test system: Alopecurus japonicus
Method in brief: as §1

[6] = test system: Echinochloa crusgalli
Method in brief: as §1

SMILES	Weeding effect in post-emergence stage, Setaria viridis (level) ([1]; Dose 15 g/ha)	Weeding effect in post-emergence stage, Abutilon theophrasti (level) ([2]; Dose 15 g/ha)	Weeding effect in post-emergence stage, Eleusine indica (level) ([3]; Dose 15 g/ha)	Weeding effect in post-emergence stage, Digitaria sanguinalis (level) ([4]; Dose 15 g/ha)	Weeding effect in post-emergence stage, Alopecurus japonicus (level) ([5]; Dose 15 g/ha)	Weeding effect in post-emergence stage, Echinochloa crusgalli (level) ([6]; Dose 15 g/ha)	other results
COC(=O)CSC(=O)C(C)O/N=C/c1cc(-n2c(=O)cc(C(F)(F)F)n(C)c2=O)c(F)cc1Cl (stereo not drawn) [Compound 406]	5 (Level 5: growth control rate is above 85%)	5 (Level 5: growth control rate is above 85%)	5 (Level 5: growth control rate is above 85%)	5 (Level 5: growth control rate is above 85%)	4 (Level 4: growth control rate is greater than or equal to 60% and less than 85%)	5 (Level 5: growth control rate is above 85%)	–
CC(O/N=C/c1cc(-n2c(=O)cc(C(F)(F)F)n(C)c2=O)c(F)cc1Cl)C(=O)SCc1ccccc1 (stereo not drawn) [Compound 409]	–	–	–	–	–	–	Weeding effect in post-emergence stage, Setaria viridis (level) ([1]; Dose 30 g/ha): 5 (Level 5: growth control rate is above 85%); Weeding effect in post-emergence stage, Abutilon theophrasti (level) ([2]; Dose 30 g/ha): 5 (Level 5: growth control rate is above 85%); Weeding effect in post-emergence stage, Eleusine indica (level) ([3]; Dose 30 g/ha): 5 (Level 5: growth control rate is above 85%); Weeding effect in post-emergence stage, Digitaria sanguinalis (level) ([4]; Dose 30 g/ha): 5 (Level 5: growth control rate is above 85%); Weeding effect in post-emergence stage, Alopecurus japonicus (level) ([5]; Dose 30 g/ha): 5 (Level 5: growth control rate is above 85%); Weeding effect in post-emergence stage, Echinochloa crusgalli (level) ([6]; Dose 30 g/ha): 5 (Level 5: growth control rate is above 85%)
COC(=O)CCNC(=O)C(C)O/N=C/c1cc(-n2c(=O)cc(C(F)(F)F)n(C)c2=O)c(F)cc1Cl (stereo not drawn) [Compound 416]	5 (Level 5: growth control rate is above 85%)	5 (Level 5: growth control rate is above 85%)	5 (Level 5: growth control rate is above 85%)	5 (Level 5: growth control rate is above 85%)	4 (Level 4: growth control rate is greater than or equal to 60% and less than 85%)	5 (Level 5: growth control rate is above 85%)	–
CON(C)C(=O)C(C)O/N=C/c1cc(-n2c(=O)cc(C(F)(F)F)n(C)c2=O)c(F)cc1Cl (stereo not drawn) [Compound 419]	5 (Level 5: growth control rate is above 85%)	5 (Level 5: growth control rate is above 85%)	5 (Level 5: growth control rate is above 85%)	5 (Level 5: growth control rate is above 85%)	5 (Level 5: growth control rate is above 85%)	5 (Level 5: growth control rate is above 85%)	–
CC(O/N=C/c1cc(-n2c(=O)cc(C(F)(F)F)n(C)c2=O)c(F)cc1Cl)C(=O)NS(=O)(=O)N(C)C(C)C (stereo not drawn) [Compound 421]	5 (Level 5: growth control rate is above 85%)	5 (Level 5: growth control rate is above 85%)	5 (Level 5: growth control rate is above 85%)	5 (Level 5: growth control rate is above 85%)	5 (Level 5: growth control rate is above 85%)	5 (Level 5: growth control rate is above 85%)	–
Cc1cc(C)n(C(=O)C(C)O/N=C/c2cc(-n3c(=O)cc(C(F)(F)F)n(C)c3=O)c(F)cc2Cl)n1 (stereo not drawn) [Compound 424]	–	–	–	–	–	–	Weeding effect in post-emergence stage, Setaria viridis (level) ([1]; Dose 30 g/ha): 5 (Level 5: growth control rate is above 85%); Weeding effect in post-emergence stage, Abutilon theophrasti (level) ([2]; Dose 30 g/ha): 5 (Level 5: growth control rate is above 85%); Weeding effect in post-emergence stage, Eleusine indica (level) ([3]; Dose 30 g/ha): 5 (Level 5: growth control rate is above 85%); Weeding effect in post-emergence stage, Digitaria sanguinalis (level) ([4]; Dose 30 g/ha): 5 (Level 5: growth control rate is above 85%); Weeding effect in post-emergence stage, Alopecurus japonicus (level) ([5]; Dose 30 g/ha): 5 (Level 5: growth control rate is above 85%); Weeding effect in post-emergence stage, Echinochloa crusgalli (level) ([6]; Dose 30 g/ha): 5 (Level 5: growth control rate is above 85%)
CCn1c(C(F)(F)F)cc(=O)n(-c2cc(/C=N/OC(C)C(=O)OC)c(Cl)cc2F)c1=O (stereo not drawn) [Compound 426]	–	–	–	–	–	–	Weeding effect in post-emergence stage, Setaria viridis (level) ([1]; Dose 250 g/ha): 5 (Level 5: growth control rate is above 85%); Weeding effect in post-emergence stage, Abutilon theophrasti (level) ([2]; Dose 250 g/ha): 5 (Level 5: growth control rate is above 85%); Weeding effect in post-emergence stage, Eleusine indica (level) ([3]; Dose 250 g/ha): 5 (Level 5: growth control rate is above 85%); Weeding effect in post-emergence stage, Digitaria sanguinalis (level) ([4]; Dose 250 g/ha): 5 (Level 5: growth control rate is above 85%); Weeding effect in post-emergence stage, Alopecurus japonicus (level) ([5]; Dose 250 g/ha): 5 (Level 5: growth control rate is above 85%); Weeding effect in post-emergence stage, Echinochloa crusgalli (level) ([6]; Dose 250 g/ha): 5 (Level 5: growth control rate is above 85%)
